Read-outs that look alike come from different tables or passages of the source.
Columns and labels:
[1] = molecular target: T1, AR (Homo sapiens, UniProt P10275); test: biochemical; assay type: binding
T1 sequence (P10275 1-920): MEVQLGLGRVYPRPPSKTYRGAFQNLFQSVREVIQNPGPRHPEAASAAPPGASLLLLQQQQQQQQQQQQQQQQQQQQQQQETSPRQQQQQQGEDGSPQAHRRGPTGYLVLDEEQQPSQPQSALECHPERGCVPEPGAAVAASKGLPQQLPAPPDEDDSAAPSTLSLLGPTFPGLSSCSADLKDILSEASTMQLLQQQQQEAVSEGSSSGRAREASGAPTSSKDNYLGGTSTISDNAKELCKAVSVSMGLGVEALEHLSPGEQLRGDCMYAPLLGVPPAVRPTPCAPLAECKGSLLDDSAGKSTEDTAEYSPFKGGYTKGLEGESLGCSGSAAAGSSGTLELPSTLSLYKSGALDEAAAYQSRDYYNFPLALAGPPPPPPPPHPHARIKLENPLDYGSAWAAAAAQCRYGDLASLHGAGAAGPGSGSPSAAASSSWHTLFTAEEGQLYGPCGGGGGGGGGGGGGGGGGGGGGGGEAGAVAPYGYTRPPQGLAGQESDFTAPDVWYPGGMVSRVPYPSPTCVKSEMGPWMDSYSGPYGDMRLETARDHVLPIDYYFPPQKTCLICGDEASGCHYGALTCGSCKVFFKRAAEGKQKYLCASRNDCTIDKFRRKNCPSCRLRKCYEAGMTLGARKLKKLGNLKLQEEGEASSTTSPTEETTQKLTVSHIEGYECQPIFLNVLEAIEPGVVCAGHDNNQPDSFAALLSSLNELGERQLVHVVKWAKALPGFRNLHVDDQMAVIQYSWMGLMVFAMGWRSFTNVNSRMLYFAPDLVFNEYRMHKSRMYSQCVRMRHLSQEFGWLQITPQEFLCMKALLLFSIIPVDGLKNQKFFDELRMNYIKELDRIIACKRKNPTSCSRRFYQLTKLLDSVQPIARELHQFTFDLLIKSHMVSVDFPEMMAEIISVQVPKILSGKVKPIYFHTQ

[2] = test system: levator ani muscle; test: Hershberger assays of compounds H-1 to H-4; assay type: in vivo, rat; details: calculated in Win Non-Lin
Procedure: FIG. 3 depicts results of Hershberger assays of compounds of the invention as described in Example 17. AUC is area under the concentration-time curve.
Hershberger assays as described above for Formulas VIII-XIV were also performed on compounds H-1, H-2, H-3, & H-4, as reported in FIG. 3, along with AR binding data in some cases in Table 11. The reported Emax values were calculated in Win Non-Lin®.

[3] = test system: levator ani muscle; test: Levator ani muscle weight in castrated rats treated subcutaneously for 14 days; assay type: in vivo, rat; details: castrated Sprague Dawley rats, subcutaneous, 3 mg/day
From the text: At sacrifice, organs were weighed and expressed as raw organ weights. Values are expressed as average±S.D. Increased size and strength of pelvic floor muscles is one mechanism by which SARMs are believed to affect UI.
At sacrifice, organs were weighed and expressed as raw organ weights. Values are expressed as average±S.D.

[4] = test system: prostate, seminal vesicles and levator ani muscle; test: Androgenic and anabolic activity in castrated immature male rats, subcutaneous osmotic pumps, 14 days; assay type: in vivo, rat
Procedure: Immature male Sprague-Dawley rats, weighing 90 to 100 g, were purchased from Harlan Biosciences (Indianapolis, Ind.). The animals were maintained on a 12 hour light-dark cycle with food and water available ad libitum.
Rats were randomly distributed into treatment groups groups. One day prior to the start of drug treatment, animals were individually removed from the cage, weighed and anesthetized with an intraperitoneal dose of ketamine/xylazine (87/13 mg/kg; approximately 1 mL per kg). When appropriately anesthetized (i.e., no response to toe pinch), the animals' ears were marked for identification purposes. Animals were then placed on a sterile pad and their abdomen and scrotum washed with betadine and 70% alcohol. The testes were removed via a midline scrotal incision, with sterile suture being used to ligate supra-testicular tissue prior to surgical removal of each testis. The surgical wound site was closed with sterile stainless steel wound clips, and the site cleaned with betadine. The animals were allowed to recover on a sterile pad (until able to stand) and then returned to their cage.
Twenty-four hours later, animals were re-anesthetized with ketamine/xylazine, and an Alzet osmotic pump(s) (model 2002) was placed subcutaneouly in the scapular region. In this instance, the scapular region was shaved and cleaned (betadine and alcohol) and a small incision (1 cm) made using a sterile scalpel. The osmotic pump was inserted and the wound closed with a sterile stainless steel wound clip. Animals were allowed to recover and were returned to their cage. Osmotic pumps contained the appropriate treatment dissolved in polyethylene glycol 300 (PEG300). Osmotic pumps were filled with the appropriate solution one day prior to implantation. Animals were monitored daily for signs of acute toxicity to drug treatment (e.g., lethargy, rough coat).
After 14 days of drug treatment, rats were anesthetized with ketamine/xylazine. Animals were then sacrificed by exsanguinations under anesthesia. A blood sample was collected by venipuncture of the abdominal aorta, and submitted for complete blood cell analysis. A portion of the blood was placed in a separate tube, centrifuged at 12,000 g for 1 minute, and the plasma layer removed and frozen at −20° C. The ventral prostates, seminal vesicles, levator ani muscle, liver, kidneys, spleen, lungs, and heart were removed, cleared of extraneous tissue, weighed, and placed in vials containing 10% neutral buffered formalin. Preserved tissues were sent for histopathological analysis.
For data analysis, the weights of all organs were normalized to body weight, and analyzed for any statistical significant difference by single-factor ANOVA. The weights of prostate and seminal vesicle were used as indexes for evaluation of androgenic activity, and the levator ani muscle weight was used to evaluate the anabolic activity.

[5] = test system: female rats with experimentally induced stress urinary incontinence; details: rat models of SUI; cited from earlier work
[6] = castrated rats, 0.10 mg/day, 14 days
[7] = castrated rats, 0.50 mg/day, 14 days
[8] = castrated rats, 0.75 mg/day, 14 days
[9] = castrated rats, 1.00 mg/day, 14 days
[10] = compared with testosterone propionate

Structure (SMILES): C[C@](O)(COc1ccc(Br)cc1)C(=O)Nc1ccc([N+](=O)[O-])c(C(F)(F)F)c1 [Compound H-3]
- Ki ([1]; read-out: Ki): 13 ± 2 nM
- Emax in levator ani muscle [2]: 64 ± 4 % of intact control

Structure (SMILES): C[C@](O)(COc1ccc(F)cc1)C(=O)Nc1ccc(C#N)c(C(F)(F)F)c1 [Compound X, (S)—N-(4-Cyano-3-(trifluoromethyl)phenyl)-3-(4-fluorophenoxy)-2-hydroxy-2-methylpropanamide]
- levator ani muscle weight [3]: elicits hypertrophy of the levator ani muscle
- Ki ([1]; read-out: binding affinity): 3.3 ± 0.08 nM
- Levator Ani organ weight (Mean ± S.D.) [4, 6]: 54.9 ± 5.77 % of intact
- Prostate organ weight (Mean ± S.D.) [4, 6]: 6.4 ± 0.82 % of intact
- Seminal Vesicles organ weight (Mean ± S.D.) [4, 6]: 8.8 ± 1.18 % of intact
- Levator Ani organ weight (Mean ± S.D.) [4, 7]: 55.0 ± 9.23 % of intact
- Prostate organ weight (Mean ± S.D.) [4, 7]: 6.2 ± 0.56 % of intact
- Seminal Vesicles organ weight (Mean ± S.D.) [4, 7]: 9.3 ± 1.57 % of intact
- Levator Ani organ weight (Mean ± S.D.) [4, 8]: 68.9 ± 8.46 % of intact
- Prostate organ weight (Mean ± S.D.) [4, 8]: 7.6 ± 0.74 % of intact
- Seminal Vesicles organ weight (Mean ± S.D.) [4, 8]: 9.8 ± 3.65 % of intact
- Levator Ani organ weight (Mean ± S.D.) [4, 9]: 75.2±9.51 % of intact
- Prostate organ weight (Mean ± S.D.) [4, 9]: 8.7±1.39 % of intact
- Seminal Vesicles organ weight (Mean ± S.D.) [4, 9]: 10.7±0.91 % of intact

Structure (SMILES): C[C@](O)(COc1ccc(Cl)cc1)C(=O)Nc1ccc(C#N)c(C(F)(F)F)c1 [Compound XI, (S)—N-(4-Cyano-3-(trifluoromethyl)phenyl)-3-(4-chlorophenoxy)-2-hydroxy-2-methylpropanamide]
- Ki ([1]; read-out: binding affinity): 3.4 ± 0.08 nM
- dose able to maintain levator ani muscle weight of castrated animals at the level of intact animals ([4]; castrated rats, 14 days): 0.3 mg/day
- weights of prostate, seminal vesicle and levator ani muscle ([4]; castrated rats, 14 days, FIG. 2): dose-dependent increases in prostate, seminal vesicle and levator ani muscle weights
- potency and intrinsic activity in increasing the weight of levator ani muscle [4, 10]: greater potency and intrinsic activity
- potency and intrinsic activity in increasing the weights of prostate and seminal vesicle [4, 10]: lower potency and intrinsic activity

Structure (SMILES): C[C@]12CC[C@H]3[C@@H](CCC4=CC(=O)CC[C@@]43C)[C@@H]1CC[C@@H]2O [Testosterone, testosterone]
- leak point pressures and size of myofibers [5]: improve leak point pressures and significantly increase the size of myofibers
